Some test systems named below: NCI/ADR-RES ovarian; KM12 colon; DMS 273 small cell lung; M19-MEL melanoma; HOP-92 NSCLC; UACC-257 melanoma; SK-MEL-2 melanoma; DMS 114 small cell lung; KM20L2 colon; HOP-18 NSCLC.
What all share (assay): DTP human tumour cell line panel, 48 h

By TGI is commonly meant the concentration giving total growth inhibition. By GI50 is commonly meant the concentration giving 50% growth inhibition.

Each structure is given as a SMILES string. Values joined by “and” are separate entries in the source; they are usually repeats but may differ in a detail not shown here. Identical values can stand only once.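 Protocol summary: plate cells (96-well), add compound at 5 concentrations, incubate 48 h, interpolate endpoints linearly. GI50 = concentration required for 50% inhibition of growth. TGI denotes the concentration required for complete inhibition of growth.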

Take `CC(=O)Oc1c(OC(C)=O)c(-c2ccc(O)c(O)c2)c(O)c(O)c1-c1ccc(O)cc1`: the TGI is above 100 µM in the assay on NCI/ADR-RES ovarian; above 100 µM in the assay with KM12 colon; above 100 µM with DMS 273 small cell lung; 53.7 µM and 68.5 µM with M19-MEL melanoma; > 100 µM and 96.6 µM in the assay with HOP-92 NSCLC; above 100 µM in the assay with UACC-257 melanoma. In addition, the TGI in the assay with SK-MEL-2 melanoma was > 100 µM and 92 µM; in the assay on DMS 114 small cell lung it was 44 µM and 57.4 µM; with KM20L2 colon, above 100 µM; in the assay with HOP-18 NSCLC, above 100 µM. For the same compound, the GI50 with DMS 273 small cell lung is 67.1 µM; with M19-MEL melanoma it was 18.1 µM; in the assay with HOP-92 NSCLC, 60.8 µM; in the assay with SK-MEL-2 melanoma, 56.5 µM; in the assay with DMS 114 small cell lung, 19.1 µM; with KM20L2 colon it was 40.7 µM.

Turning to `Nc1ccn(C2OC(COP(=O)(O)Oc3ccccc3)C(O)C2O)c(=O)n1` (stereo unspecified), the total growth inhibition concentration (TGI) in the assay on NCI/ADR-RES ovarian, with KM12 colon, in the assay on DMS 273 small cell lung, in the assay on M19-MEL melanoma, in the assay on HOP-92 NSCLC and in the assay on UACC-257 melanoma was above 100 µM in each case. Further, the TGI with SK-MEL-2 melanoma was above 100 µM; in the assay on DMS 114 small cell lung, above 100 µM; with KM20L2 colon, above 100 µM; with HOP-18 NSCLC it was 98.1 µM.

(Values after PubChem BioAssay (NCI).)
